The results in this text go back to the METLIN SMRT retention time set (Domingo-Almenara et al. 2019).

Structures are written as SMILES.

A short description of this data set: gradient 5% acetonitrile 3 min, to 50% in 2 min, to 85% in 15 min, held 3 min, 100 µL/min. The following applies: column: Zorbax Extend-C18 2.1 x 50 mm; eluents: water / acetonitrile, 0.1% formic acid. In short, it runs like this:
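Values are retention times taken from adduct peaks that software picked and an analyst inspected. The pure standards were run as mixtures of ~100 molecules on HPLC linked to a quadrupole time-of-flight mass spectrometer, in positive and negative ionization mode. A Zorbax Extend-C18 column (2.1 × 50 mm, 1.8 μm) was used at 100 μL/min with water and acetonitrile, each including 0.1% formic acid.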
As for `O=C(Nc1ncc(Cc2ccccc2Cl)s1)c1cc2ccccc2c(=O)o1`, the RP-LC retention time was determined as 991 s.

Take `Cc1nnc([C@@H]2CC(F)(F)CN2C(=O)c2nn(C)c3ccccc23)o1`: the RP-LC retention time turned out to be 788 s.

`O=C(c1nc(Nc2ccc(F)cc2)c2ccccc2n1)N1CCOCC1` displayed an RP-LC retention time of 685 s.

`CCc1ccc(CN2CCC3(CC2)CC(O)(COC)CCO3)cc1` (stereo not given): the RP-LC retention time was found to be 575 s.

Turning to `CCOC(=O)Cc1nc(-c2cncc(Br)c2)n[nH]1`, the RP-LC retention time turned out to be 673 s.

Turning to `COc1cc(C2NCCc3c2[nH]c2ccccc32)ccc1OC(C)C` (stereo not given), the RP-LC retention time came out at 676 s.

The molecule `COc1cccc(NC(=O)C2CCN(S(=O)(=O)c3ccc4[nH]c(=O)sc4c3)CC2)c1` came in with an RP-LC retention time of 783 s.

Molecule `COCCN1CCC(N2CCCN(C(=O)C3COc4ccccc4O3)CC2)C1=O` (stereo not given) displayed an RP-LC retention time of 560 s.

In turn, `COc1ccc(-c2nnc(-c3ccc(OC)c(S(=O)(=O)N4CCC(C)CC4)c3)o2)cc1OC` registered an RP-LC retention time of 990 s.

With `Cc1nc(-c2cn(C)c3ncccc23)sc1C(=O)NCc1ccc(F)cc1Cl`, the RP-LC retention time turned out to be 990 s.

`COc1cc(NS(=O)(=O)c2ccc(-c3c(C)noc3C)cc2)cc(OC)c1`: the RP-LC retention time worked out at 889 s.

On to `CCCc1cc(N2CCN(C(=O)c3sccc3C)CC2)nc2nnc(C)n12`, for which the RP-LC retention time came to 566 s.

As to `O=C(C1=CN(c2ccc(Cl)c(Cl)c2)c2cc(F)ccc2S1(=O)=O)N1CCOCC1`, the RP-LC retention time worked out at 882 s.

In turn, `CCOc1ccccc1N1CCN(S(=O)(=O)c2nn(C)cc2C(=O)NCCCOC)CC1` had an RP-LC retention time of 847 s.

Take `O=C(c1ccc2c(c1)OCO2)N1[C@H]2CC[C@@H]1c1cnc(-c3ccccc3)nc1C2`: the RP-LC retention time was 914 s.

`O=C(c1cnccn1)N1CCCCC1c1nc(-c2ccc(F)cc2)no1` (stereo not given): the RP-LC retention time came out at 918 s.

As for `CCOc1ccccc1OCc1nn2c(COc3ccc(F)cc3)nnc2s1`, the RP-LC retention time turned out to be 1000 s.

As for `O=C(C1=CN(c2ccc(F)cc2)c2ccccc2S1(=O)=O)N1CCOCC1`, the RP-LC retention time came out at 741 s.

`O=C(NCc1ccc(-n2ccnc2)cc1)c1ccc(F)c(F)c1` yielded an RP-LC retention time of 625 s.

Consider `O=c1c(=O)n(-c2ccc(Br)cc2)ccn1Cc1ccncc1`, for which the RP-LC retention time turned out to be 554 s.

`CCC1Oc2ccc(S(=O)(=O)N3CCC(C(=O)N(C)Cc4ccccc4)CC3)cc2NC1=O` (stereo not given): the RP-LC retention time was 872 s.

`COc1ccc(Cn2ccc3nc(C)c(C(=O)NCCc4c[nH]c5ccccc45)cc3c2=O)cc1`: the RP-LC retention time was 807 s.

For the molecule `COc1ccccc1C(=O)NC1(C(F)(F)F)C(=O)N(C2CCCC2)C(C)=C1C(C)=O` (stereo not given), the RP-LC retention time stood at 1000 s.

The molecule `CCN(CC)CCNC(=O)Cn1c2ccccc2c2nc(=O)cc(C)n21` showed an RP-LC retention time of 592 s.

On to `O=C1CC(c2ccco2)Sc2nc3ccccc3n21` (stereo not given), for which the RP-LC retention time is 796 s.

Molecule `Cc1ccc2cc(CCC(=O)NCCCN(C)C)c(=O)[nH]c2c1` gave an RP-LC retention time of 577 s.

In turn, `CC(C)n1cnc(S(=O)(=O)N2CCC(C(=O)NCc3cccs3)CC2)c1` showed an RP-LC retention time of 701 s.

`Cc1ccc(C)c(-c2csc(Nc3ccc(F)cn3)n2)c1` had an RP-LC retention time of 1150 s.

`Cc1cc(Cl)ccc1NC(=O)N1CCC2(CC1)c1nccn1CCN2C` displayed an RP-LC retention time of 612 s.

As for `COCCO[C@H]1C(=O)N(C2CCN(S(C)(=O)=O)CC2)[C@H]1c1ccncc1`, the RP-LC retention time amounted to 543 s.

With `Cn1nccc1C(=O)N1CCCC1c1nc(-c2cccc(C(F)(F)F)c2)no1` (stereo not given), the RP-LC retention time stood at 940 s.

In turn, `C=CCn1c(=O)c2ccccc2n(Cc2nc(-c3ccc(Br)cc3)no2)c1=O` yielded an RP-LC retention time of 1150 s.

In turn, `Cc1cc(CC(=O)N2CC(F)(F)C[C@H]2c2nc(C)no2)on1` registered an RP-LC retention time of 732 s.

The molecule `CCc1ccc(NC(=O)Cn2cnc3c(sc4nc(-c5ccccc5)ccc43)c2=O)cc1` yielded an RP-LC retention time of 1100 s.

`CN1CCN(S(=O)(=O)c2ccc(C#N)cc2)CC1c1ccccc1` (stereo not given) yielded an RP-LC retention time of 528 s.

In turn, `COC(=O)c1c(NCCc2ccccc2)c2cccc(Cl)c2[nH]c1=O` registered an RP-LC retention time of 825 s.

`O=C(Nc1ccccc1)Nc1ccccc1` came in with an RP-LC retention time of 767 s.

Molecule `O=C(CCc1c(-c2ccccc2)nc2ccccn12)Nc1ccccc1C(F)(F)F` had an RP-LC retention time of 691 s.

On to `Cc1ccc(CSc2nnc(-c3ccccc3Cl)o2)cc1`, for which the RP-LC retention time is 1190 s.

For the molecule `Cc1ccccc1CNC(=O)C1(C)CCCN(C(=O)Nc2ccccc2Cl)C1` (stereo not given), the RP-LC retention time was found to be 1010 s.

In turn, `Cc1ccc(NS(=O)(=O)c2cc(-c3nc(C(C)(C)C)cs3)cs2)c(Cl)c1` displayed an RP-LC retention time of 1320 s.

The molecule `O=C(c1ccoc1)N1CCC2(CCCCO2)CC1` yielded an RP-LC retention time of 639 s.

Take `Cc1nc(-c2noc(-c3ccc(F)cc3)n2)cn1CC(=O)NCc1ccc(Cl)cc1`: the RP-LC retention time came to 896 s.

As to `CCN(C(=O)c1ccccc1Br)c1nc(-c2ccccc2)cs1`, the RP-LC retention time was determined as 1330 s.

For `CCc1onc(C)c1C1CCCN1C(=O)Nc1ccc(C)cc1` (stereo not given), the RP-LC retention time was 844 s.

In turn, `Cc1cc(N2CCC(C)CC2)n2nc(CN3CCN(c4ccccn4)CC3)nc2n1` displayed an RP-LC retention time of 599 s.

`Cn1c(=O)c2cc(C(=O)Nc3ccc(Cl)cc3)cnc2n(-c2ccccc2)c1=O`: the RP-LC retention time amounted to 962 s.

`O=c1c(NCCc2cccnc2)nc2ccncc2n1Cc1ccccc1` had an RP-LC retention time of 539 s.

Consider `CCN(CC)CCCNC(=O)C1c2ccccc2C(=O)N2CCc3cc(OC)c(OC)cc3C12` (stereo not given), for which the RP-LC retention time amounted to 597 s.

Regarding `O=C(Nc1ccc(F)cc1F)[C@@H]1OCC(=O)N(C2CC2)[C@H]1c1ccccc1`, the RP-LC retention time was determined as 785 s.

Regarding `CC(C)CNC(=O)N1CCCC(Cc2nncn2C)C1` (stereo not given), the RP-LC retention time is 550 s.

`Cc1noc2nc(CCC(=O)NCc3ccc(Cl)cc3)nc(N3CCCC3)c12`: the RP-LC retention time was determined as 819 s.

Take `O=C(CN1C(=O)C(C(=O)N2CCCCCC2)Sc2ccccc21)NC1CCCCC1` (stereo not given): the RP-LC retention time was determined as 1090 s.

For the molecule `CCCNC(=O)C1CCCN(c2ccc(SCC(=O)Nc3ccc(C)cc3C)nn2)C1` (stereo not given), the RP-LC retention time is 733 s.

Consider `Nc1ncnc(NC2CCCC2)c1[N+](=O)[O-]`, for which the RP-LC retention time worked out at 679 s.

In turn, `CC(C)C(=O)N1CCN(c2nc(CN3CCOCC3)cs2)CC1` displayed an RP-LC retention time of 569 s.

As for `CCn1c(=O)c2ccn(CC(=O)NCc3cccnc3)c2n(CC)c1=O`, the RP-LC retention time is 568 s.

Take `CCOC(=O)c1cc([N+](=O)[O-])sc1NC(=O)c1c(-c2ccccc2Cl)noc1C`: the RP-LC retention time is 1220 s.

On to `COc1ccc(-c2noc(C3CCCN3C(=O)c3ccccc3OC)n2)cc1` (stereo not given), for which the RP-LC retention time came out at 901 s.

`COC(=O)c1cc(S(=O)(=O)N2CCCC2C(=O)N2CCc3ccccc32)cn1C` (stereo not given) showed an RP-LC retention time of 848 s.
